# Source: ChEMBL document CHEMBL3430912, “GSK Tres Cantos Anti-Kinetoplastid Screening (TCAKS) Data”
# What was measured:
# Trypanosoma cruzi [1] = assay: GSK_TCAKS: pIC50 Trypanosoma cruzi viability assay using beta-GAL activity. This assay was run at single shot at 5uM compound concentration per well. The biological reagents consisted of NIH-3T3 host cells and trypomastigotes parasitic cells; both cell types were set to a 3.3 * 10^5 cells/mL dilution in assay DMEM by means of a CASY cell counter device using a 60um capillary. 6 uL of the mixture were dispensed per well (about 1 * 10^3 host-cells and 1 * 10^3 parasites) with a Multidrop Combi dispenser. […] In all wells, the percentage of DMSO never exceeded 0.5%. Plates incubated for four days at 37C, 5% CO2. The substrate used for the assay fluorescence intensity (FLINT) readout was resorufin-beta-D-galactopiranoside (Sigma-Aldrich) at 5uM per well. It was diluted in PBS supplemented with the soft detergent Igepal (Fluka).; format: functional, organism-based, Mus musculus; conditions: Tulahuen, NIH3T3
# Trypanosoma cruzi [2] = assay: (§1) GSK_TCAKS: pIC50 Trypanosoma cruzi Imaging: Infected Cells. […] Cells were then washed once with PBS before infection. T. cruzi trypomastigotes, collected at days 5 to 8 after infection from LLC-MK2 parasite infected cultures, were allowed to swim out for 4h at 37C from a centrifuged pellet (2,500 rpm/10 min/room temperature). Trypomastigotes were then collected and counted in a CASY Cell Counter. Trypomastigotes, in supplemented DMEM, were added to H9c2 cultures in a multiplicity of infection of 1 and incubated for 18 h. Cells were washed once with PBS before incubation of the infected H9c2 monolayer with trypsin (Life-Technologies) to detach cells from the flask. Cells were counted in a CASY Cell Counter using a 150 um capillary and their density set at 5 * 10^4 cells per mL in supplemented assay DMEM. Infected H9c2 were dispensed into 384-well poly-lysine coated assay plates at 50uL per well using a Multidrop Combi dispenser. After seeding them, the plates were incubated at 37C, 5% CO2 for 72h. Cultures were then fixed and stained by addition of 50 uL of a solution containing 8% formaldehyde and 4 uM DRAQ5 DNA dye (BioStatus, UK) per well. […] Five images were collected per well for reliable statistical analysis. Automated image analysis was performed with a script developed on Acapella High Content Imaging and Analysis Software (PerkinElmer). Output: percentage of infected cells per well as a second infection marker.; format: functional, organism-based, Rattus norvegicus; conditions: H9c2, 4 h
# Trypanosoma cruzi [3] = assay: GSK_TCAKS: pIC50 Trypanosoma cruzi Imaging: Amastigotes/Cell. […] Cells were then washed once with PBS before infection. T. cruzi trypomastigotes, collected at days 5 to 8 after infection from LLC-MK2 parasite infected cultures, were allowed to swim out for 4h at 37C from a centrifuged pellet (2,500 rpm/10 min/room temperature). Trypomastigotes were then collected and counted in a CASY Cell Counter. Trypomastigotes, in supplemented DMEM, were added to H9c2 cultures in a multiplicity of infection of 1 and incubated for 18 h. Cells were washed once with PBS before incubation of the infected H9c2 monolayer with trypsin (Life-Technologies) to detach cells from the flask. Cells were counted in a CASY Cell Counter using a 150 um capillary and their density set at 5 * 10^4 cells per mL in supplemented assay DMEM. Infected H9c2 were dispensed into 384-well poly-lysine coated assay plates at 50uL per well using a Multidrop Combi dispenser. After seeding them, the plates were incubated at 37C, 5% CO2 for 72h. Cultures were then fixed and stained by addition of 50 uL of a solution containing 8% formaldehyde and 4 uM DRAQ5 DNA dye (BioStatus, UK) per well. […] Five images were collected per well for reliable statistical analysis. Automated image analysis was performed with a script developed on Acapella High Content Imaging and Analysis Software (PerkinElmer). Output: number of amastigotes per cell as infection level measurement.; format: functional, organism-based, Rattus norvegicus; conditions: H9c2, 4 h
# Trypanosoma cruzi [4] = assay: as §1, with “H2C9” for “Trypanosoma cruzi”, “H9c2 Host Cardiomyocytes.” for “Infected Cells.”, “Number” for “percentage”, “H9c2 Host Cardiomyocytes nuclei to determine drug-related cytotoxicity.” for “infected cells per well as a second infection marker.”; format: functional, organism-based, Rattus norvegicus; conditions: H9c2, 4 h
# Leishmania donovani [5] = assay: GSK_TCAKS: pIC50 Leishmania donovani viability assay using fluorescence intensity. Assay plates (1536-well) were prepared by adding 30nL per well of compound. For single shot assay, the final compound concentration was 5uM. […] Briefly, eGFP LdBOB axenic amastigotes were harvested, fixed and counted in a CASY cell counter (Roche-Applied Science). A final concentration of 1.5 * 10^5 cells per well were prepared in amastigote media containing 500 U/mL penicillin/streptomycin (Invitrogen) and 6uL was dispensed to each experimental well using a Multidrop Combi dispenser (Thermo Scientific). 6uL of assay media was dispensed to control columns used as reference for 100% compound response. Following incubation for 72 h at 37C, 5% CO2, 2 uL of resazurin was added to each well at a final concentration of 0.5 mM in phosphate buffered saline (PBS) with IGEPAL (Sigma-Aldrich), 0.05% (v/v).; format: functional, organism-based
# Leishmania donovani [6] = assay: (§2) GSK_TCAKS: pIC50 Leishmania donovani Imaging: Infected Macrophages. Assay plates (384-well) were prepared by adding 250nL of compound to each well. For single shot assay, the final compound concentration was 5 uM. […] Automated image analysis was performed with a script developed on Acapella High Content Imaging and Analysis Software (PerkinElmer). Output: Percent of infected macrophage cells were reported for each well.; format: functional, organism-based, Homo sapiens; conditions: THP-1
# Leishmania donovani [7] = assay: as §2, with “Amastigotes/Macrophages.” for “Infected Macrophages.”, “Average number” for “Percent”, “amastigotes per” for “infected”, “cell” for “cells”; format: functional, organism-based, Homo sapiens; conditions: THP-1
# Leishmania donovani [8] = assay: as §2, with “THP-1 Host” for “Infected”, “THP-1 cell count” for “Percent of infected macrophage cells”; format: functional, organism-based, Homo sapiens
# [9] = system: Trypanosoma brucei brucei; assay: GSK_TCAKS: pIC50 Trypanosoma brucei viability assay using fluorescence intensity. Assay plates (1536-well) were prepared by dispensing 25nL of compound solution per well using an Echo acoustic dispenser (Labcyte).; format: functional, organism-based; conditions: Lister 427, 2 h
# [10] = system: Trypanosoma brucei brucei; assay: GSK_TCAKS: pIC50 Trypanosoma brucei viability assay using luminiscence. Assay plates (1536-well) were prepared. T. brucei cultures were harvested and counted in a CASY cell counter. A parasite suspension was prepared at a final concentration of 5 * 10^4 cells/mL in complete HMI9 medium and 6uL was dispensed to all wells containing compounds using a Multidrop Combi dispenser. 6uL of HMI9 media with 0.4% DMSO were dispensed to control columns. Plates were incubated for 24 h at 37C, 5% CO2 then tempered for 10 min at room temperature. ATP content was quantified by adding 4 uL of CellTiter-Glo Reagent (Promega) according to the manufacturer's instructions. Luminescence was measured using a ViewLux.; format: functional, organism-based; conditions: Lister 427, CASY
# [11] = GSK_TCAKS: pIC50 HepG2 human cell line viability assay using luminiscence. […] Seeding density was checked to ensure that new mono-layers were not more than 50% confluent at the time of harvesting. Cell suspension was added to 500 mL of the same medium at a final density of 1.2 * 10^5 cells/mL. This cell suspension was dispensed (25 uL, 3000 cells per well) into 384-well clear-bottom plates using a Multidrop Combi dispenser. Prior to addition of the cell suspension, the screening compounds (250 nL) were pre-dispensed into the plates with an Echo liquid handler. Plates were incubated for 48 h at 37C, 5% CO2. After incubation, plates equilibrated at room temperature for 30 min before proceeding to develop the luminescent signal. The signal developer, CellTiter-Glo Reagent, was allowed to equilibrate at room temperature for 30 min and added to the plates (25uL per well) using a Multidrop Combi dispenser. Plates were left for 10 min at room temperature for stabilization and then read using a ViewLux.; format: toxicity, cell-based
# NIH3T3 = assay: GSK_TCAKS: pIC50 NIH 3T3 cell line viability assay using luminiscence. Tissue culture surface treated assay plates (1536-well) were used. […] The 100% cells survival control was determined exposing the host-cells to a 0.5% DMSO concentration, whereas the 100% toxicity control was achieved by seeding the cells in presence of Amphotericin B at 50uM. Plates were incubated for four days at 37C, 5% CO2. The assay readout was developed by addition of 5uL of CellTiter-Glo Reagent following the manufacturer's instructions. Luminiscence was measured using a ViewLux.; format: functional, cell-based; conditions: Mus musculus, NIH3T3, 96 h
# [12] = biological target: Sterol 14-alpha demethylase (Trypanosoma cruzi (strain CL Brener), UniProt Q7Z1V1); assay: GSK_TCAKS: pIC50 CYP51 from Trypanosoma cruzi.; format: functional
# Chain of Sterol 14-alpha demethylase (Q7Z1V1 whole entry): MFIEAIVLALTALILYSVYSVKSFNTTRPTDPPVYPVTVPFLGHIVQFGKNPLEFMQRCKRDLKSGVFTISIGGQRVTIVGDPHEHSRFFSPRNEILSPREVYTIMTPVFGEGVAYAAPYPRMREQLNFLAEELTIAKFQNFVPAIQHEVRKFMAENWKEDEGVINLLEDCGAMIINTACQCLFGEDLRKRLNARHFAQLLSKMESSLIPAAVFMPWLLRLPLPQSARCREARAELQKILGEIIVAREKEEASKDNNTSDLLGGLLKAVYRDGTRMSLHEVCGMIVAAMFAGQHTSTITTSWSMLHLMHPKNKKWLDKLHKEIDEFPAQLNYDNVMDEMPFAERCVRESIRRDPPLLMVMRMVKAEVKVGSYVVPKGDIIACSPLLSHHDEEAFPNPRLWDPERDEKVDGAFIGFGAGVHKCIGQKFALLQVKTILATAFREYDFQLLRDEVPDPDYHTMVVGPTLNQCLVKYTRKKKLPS
Compound,IC50 (Trypanosoma cruzi [1]) [µM],IC50 (Trypanosoma cruzi [2]) [µM],IC50 (Trypanosoma cruzi [3]) [µM],IC50 (Trypanosoma cruzi [4]) [µM],IC50 (Leishmania donovani [5]) [µM],IC50 (Leishmania donovani [6]) [µM],IC50 (Leishmania donovani [7]) [µM],IC50 (Leishmania donovani [8]) [µM],IC50 [9] [µM],IC50 [10] [µM],IC50 at 48 h [11] [µM],IC50 (NIH3T3) [µM],IC50 [12] [µM]
COc1ccc(CN2CCCCC2c2nc(-c3cccnc3)no2)cc1 (centres undefined),0.794,0.794,0.631,> 50.1,> 50.1,> 50.1,> 50.1,> 50.1,> 39.8,> 39.8,> 100,> 50.1,0.2
COc1ccc(C(=O)N2CCC(Nc3cccnc3)C2)c(OC)n1 (centres undefined),0.316,0.794,0.794,> 50.1,15.8,> 50.1,> 50.1,> 50.1,> 39.8,> 39.8,> 100,> 50.1,0.0631
OCCCNc1nc(Nc2ccncc2)nc2ccccc12,0.708,1.26,0.2,> 50.1,39.8,> 50.1,> 50.1,> 50.1,25.1,> 39.8,> 100,> 50.1,> 100
Cc1nn(C)c(Cl)c1CN(Cc1cccnc1)Cc1ccsc1,0.178,0.316,0.316,> 50.1,2,> 50.1,3.16,> 50.1,> 39.8,> 39.8,> 100,20,0.0631
CC(Cn1ccnc1)NC(=O)COc1ccc(Cl)c(Cl)c1 (centres undefined),0.224,0.501,0.398,> 50.1,> 50.1,> 50.1,> 50.1,> 50.1,> 39.8,> 39.8,> 100,> 50.1,0.0631
Cc1ccc(C)c(OC2CCN(C(=O)C(C)n3ccnc3)CC2)c1 (centres undefined),0.178,0.398,0.316,> 50.1,2.51,> 50.1,0.316,> 50.1,> 39.8,> 39.8,> 100,> 50.1,0.1
Cc1[nH]c2ccccc2c(=O)c1Cc1c(C)[nH]c2ccccc2c1=O,2.51,3.16,1,> 50.1,20,> 50.1,> 50.1,> 50.1,> 39.8,> 39.8,> 100,> 50.1,> 100
O=C(c1cnn(-c2ccccc2)n1)N1CCCC(n2ccnc2)C1 (centres undefined),0.0562,0.0794,0.0631,> 50.1,7.94,> 50.1,0.631,> 50.1,> 39.8,31.6,> 100,20,0.0794
